# Results taken from patent publication US12691070B2, “Cationic lipids and preparation method thereof” (RiboX Therapeutics HK Limited, priority 2023, dated 2026).
# Key:
# [1] = LNP size and polydispersity index (PDI) by dynamic light scattering; type: physicochemical; settings: LNP with cirRNA (SEQ ID NO: 1); for Size: in nm (unit assumed)
# Method in brief: (§1)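 Dynamic light scattering and zeta potential measurements were run on PBS-dialyzed LNPs, which had been formed by microfluidic mixing at 12 ml/min with final lipid at 1.5 mM to 6 mM. RNA content and percent encapsulation were determined by Ribogreen with and without Triton X-100.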
# [2] = LNP zeta potential (Zetasizer); type: physicochemical; settings: LNP with cirRNA (SEQ ID NO: 1)
# Method in brief: as §1
# [3] = RNA encapsulation efficacy by Quant-IT Ribogreen kit; type: physicochemical; settings: LNP with cirRNA (SEQ ID NO: 1)
# Method in brief: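 LNPs of ionizable lipid/DSPC/cholesterol/DMG-PEG 2000 (50:10:38.5:1.5) made by microfluidic mixing of luciferase circRNA or mRNA in pH 4.5 acetate with lipids in ethanol (3:1, 12 ml/min), ionizable lipid:nucleotide 15 or 6, then dialyzed against PBS. Size, PDI (DLS) and zeta potential on Zetasizer; encapsulation by Ribogreen ± Triton X-100.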
# Hep G2 cells [4] = assay: In vitro expression of firefly-luciferase, Hep G2; type: cell-based; settings: cirRNA (SEQ ID NO: 1) LNPs; firefly-luciferase luminescence; Hep G2 cells
# Method in brief: (§2)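 Cells were transfected with firefly-luciferase-encoding RNA-LNPs at 100 ng/mL. After 72 hours they were washed and lysed, and luciferase activity in the lysates was read by luminometry.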
# RAW 264.7 cells [5] = assay: In vitro expression of firefly-luciferase, RAW 264.7; type: cell-based; settings: cirRNA (SEQ ID NO: 1) LNPs; firefly-luciferase luminescence; RAW 264.7 cells
# Method in brief: as §2
# Hep G2 cells [6] = assay: In vitro toxicity (CellTiter-Glo cell viability), Hep G2; type: cell-based; settings: cirRNA (SEQ ID NO: 1) LNPs; Hep G2 cells;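 further: percent of untreated cells luminescence signal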
# Method in brief: (§3)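 Toxicity of RNA-LNPs (1 μg/mL) is reported as cell viability, calculated from CellTiter-Glo luminescence measured at 72 hours after transfection.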
# RAW 264.7 cells [7] = assay: In vitro toxicity (CellTiter-Glo cell viability), RAW 264.7; type: cell-based; settings: cirRNA (SEQ ID NO: 1) LNPs; RAW 264.7 cells;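 further: percent of untreated cells luminescence signal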
# Method in brief: as §3
# BALB/C mice = assay: In vivo expression, whole-body luminescence (IVIS); settings: cirRNA (SEQ ID NO: 1) LNPs, BALB/C mice
# Protocol: 6-8 week old, female BALB/C mice were injected with 0.05 mg*kg-1 of RNA-LNPs encoding for firefly-luciferase by intravenous injection. At 6 hours post injection, animals were intraperitoneally injected with 15 mg/ml of Luciferin substrate and whole-body luminescence was determined by a bioluminescent in vivo imaging system (IVIS).
SMILES,PDI [1],Size [1],Zeta (mV) [2],Encapsulation Efficiency % [3],In vitro Expression HepG2 (Hep G2 cells [4]),In vitro Expression RAW (RAW 264.7 cells [5]),In vitro Viability HepG2 (Hep G2 cells [6]),In vitro Viability RAW (RAW 264.7 cells [7]),In vivo Expression (Whole Body) (BALB/C mice)
CCCCCCCCCCC(CCCCCCCC)COC(=O)CCCCCN(CCCCCC(=O)OCC(CCCCCCCC)CCCCCCCCCC)CCOC(=O)NCc1ncc[nH]1 (stereo not drawn) [Lipid 171],0.1297,55.9,−5.824 mV,77%,3.04E+05,2.44E+05,97%,88%,5.09E+07
CCCCCCCCCCC(CCCCCCCC)COC(=O)CCCCCN(CCCCCC(=O)OCC(CCCCCCCC)CCCCCCCCCC)CCOC(=O)NCCCN(CC)CC (stereo not drawn) [Lipid 172],0.2521,67.53,1.36 mV,83%,1.12E+07,5.83E+05,41%,90%,2.14E+07
CCCCCCCCCCC(CCCCCCCC)COC(=O)CCCCCN(CCCCCC(=O)OCC(CCCCCCCC)CCCCCCCCCC)CCOC(=O)NCCN1CCN(C)CC1 (stereo not drawn) [Lipid 173],0.3423,73.65,−0.5735 mV,82%,3.32E+07,9.48E+05,57%,90%,3.45E+07
CCCCCCCCCCC(CCCCCCCC)COC(=O)CCCCCN(CCCCCC(=O)OCC(CCCCCCCC)CCCCCCCCCC)CCOC(=O)NCCN1CCOCC1 (stereo not drawn) [Lipid 174],0.0911,57.29,−4.35 mV,89%,1.56E+05,1.30E+04,89%,92%,5.15E+07
CCCCCCCCCC(=O)OCCCCCCCN(CCCCCCCOC(=O)CCCCCCCCC)CCOC(=O)NCCN1CCN(C)CC1 [Lipid 178],0.1534,61.85,16.19 mV,95%,6.17E+04,1.31E+03,99%,92%,1.31E+06
CCCCC/C=C\CCOC(=O)CCCCCN(CCCCCCCCOC(=O)C(CCCCCC)CCCCCCCC)CCOC(=O)NCc1ncc[nH]1 (stereo not drawn) [Lipid 185],0.102,69.89,−1.137 mV,88%,9.12E+03,5.29E+04,90%,85%,1.22E+08
CCCCC/C=C\CCOC(=O)CCCCCN(CCCCCCCCOC(=O)C(CCCCCC)CCCCCCCC)CCOC(=O)NCCCN(CC)CC (stereo not drawn) [Lipid 186],0.4618,122.7,14.31 mV,90%,1.51E+05,2.82E+02,88%,0%,2.96E+06
CCCCC/C=C\CCOC(=O)CCCCCN(CCCCCCCCOC(=O)C(CCCCCC)CCCCCCCC)CCOC(=O)NCCN1CCN(C)CC1 (stereo not drawn) [Lipid 187],0.277,65.71,8.983 mV,92%,3.27E+05,7.47E+04,93%,0%,2.29E+06
CCCCC/C=C\CCOC(=O)CCCCCN(CCCCCCCCOC(=O)C(CCCCCC)CCCCCCCC)CCOC(=O)NCCN1CCOCC1 (stereo not drawn) [Lipid 188],0.07877,73.74,−9.419 mV,88%,1.12E+04,2.82E+03,96%,87%,2.17E+07
CCCCC/C=C\CCOC(=O)CCCCCN(CCCCCCCCOC(=O)C(CCCCCC)CCCCCCCC)CCOC(=O)NCCN(C)C (stereo not drawn) [Lipid 189],0.4058,84.04,18.88 mV,95%,9.85E+04,2.71E+02,89%,1%,1.79E+06
CCCCC/C=C\CCOC(=O)CCCCCN(CCCCCCCCOC(=O)C(CCCCCC)CCCCCCCC)CCOC(=O)NCCN1CCCC1 (stereo not drawn) [Lipid 191],0.2327,79.79,12.32 mV,91%,4.43E+04,1.22E+03,92%,4%,1.02E+07
CCCCC/C=C\CCOC(=O)CCCCCN(CCCCCCCCOC(=O)C(CCCCCC)CCCCCCCC)CCOC(=O)NCCN1CCCCC1 (stereo not drawn) [Lipid 192],0.1344,76.52,−7.77 mV,92%,4.18E+04,8.42E+03,94%,86%,8.52E+07
CCCCCCCCCC(=O)OCCCCCCCN(CCCCCCCCOC(=O)C(CCCCCC)CCCCCCCC)CCOC(=O)NCCCN(C)C (stereo not drawn) [Lipid 193],0.3634,66.71,15.29 mV,94%,5.28E+05,1.70E+03,94%,3%,1.00E+06
CCCCCCCCCC(=O)OCCCCCCCN(CCCCCCCCOC(=O)C(CCCCCC)CCCCCCCC)CCOC(=O)NCc1ncc[nH]1 (stereo not drawn) [Lipid 198],0.2199,64.1,−3.471 mV,94%,2.19E+04,8.39E+04,104%,90%,9.90E+06
CCCCCCCCCC(=O)OCCCCCCCN(CCCCCCCCOC(=O)C(CCCCCC)CCCCCCCC)CCOC(=O)NCCCN(CC)CC (stereo not drawn) [Lipid 199],0.436,97.91,13.62 mV,94%,3.74E+05,1.29E+03,87%,0%,3.44E+05
